Assay results published in US20240158446A1, “CYCLIC COMPOUND HAVING SELECTIVE INHIBITORY ACTION ON KRAS OVER HRAS AND NRAS” (CHUGAI SEIYAKU KABUSHIKI KAISHA, priority 2021, published 2024).
Like-named read-outs stand apart in the source and are kept apart here. *1 amine or outer side, *2 acyl side, *3 side chain or, on linkers, in order; H or OH if unused. Where a SMILES comes first, the peptide text is derived from it. Bridges are numbered along the chain shown (N, C = ends). [ ]: non-standard residue; d: D form. The star is where a group is joined. hPhe(3,5-F2-4-CF3) = N[C@@H](CCc1cc(F)c(C(F)(F)F)c(F)c1)C(=O)O; hPhe(3-Cl-4-CF3) = N[C@@H](CCc1ccc(C(F)(F)F)c(Cl)c1)C(=O)O; X17 = CCCCN([C@@H](Cc1ccc(C(F)(F)F)cc1)C(=O)[*:2])[*:1]; NPrPhe(4-CF3) = CCCN[C@@H](Cc1ccc(C(F)(F)F)cc1)C(=O)O; X13 = O=C([C@@H](N[*:1])C1CC(F)(F)C1)[*:2]; NMeGly(cPent) = CN[C@H](C(=O)O)C1CCCC1; Pro(4,4-F2) = O=C(O)[C@@H]1CC(F)(F)CN1; αMeI = CC[C@H](C)[C@](C)(N)C(=O)O; Hyp = O=C(O)[C@@H]1C[C@@H](O)CN1; NMeD = CN[C@@H](CC(=O)O)C(=O)O; NMeL = CN[C@@H](CC(C)C)C(=O)O; Morpholide = C1CN(*)CCO1; Ac5c = NC1(C(=O)O)CCCC1; Aze = O=C(O)[C@@H]1CCN1; Ac4c = NC1(C(=O)O)CCC1; NEtG = CCNCC(=O)O; Sar = CNCC(=O)O

Tests used:
[1] = biological target: GDP-bound KRAS wild-type protein (Homo sapiens, UniProt P01116); test: Binding to KRAS by surface plasmon resonance (SPR), Single Cycle Kinetics; details: GDP-bound KRAS wild-type protein, read-out: KRAS KD
Sequence of GDP-bound KRAS wild-type protein (P01116 whole entry): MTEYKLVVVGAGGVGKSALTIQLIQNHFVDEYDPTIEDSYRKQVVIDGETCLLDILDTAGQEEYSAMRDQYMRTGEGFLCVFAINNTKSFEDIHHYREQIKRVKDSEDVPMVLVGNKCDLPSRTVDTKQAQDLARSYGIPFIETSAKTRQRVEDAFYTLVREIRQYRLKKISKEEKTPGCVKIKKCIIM

[2] = biological target: GDP-bound NRAS wild-type protein (Homo sapiens, UniProt P01111); test: Binding to NRAS by surface plasmon resonance (SPR), Single Cycle Kinetics; details: SPR, GDP-bound NRAS wild-type protein vs GDP-bound KRAS wild-type protein
Sequence of GDP-bound NRAS wild-type protein (P01111 whole entry): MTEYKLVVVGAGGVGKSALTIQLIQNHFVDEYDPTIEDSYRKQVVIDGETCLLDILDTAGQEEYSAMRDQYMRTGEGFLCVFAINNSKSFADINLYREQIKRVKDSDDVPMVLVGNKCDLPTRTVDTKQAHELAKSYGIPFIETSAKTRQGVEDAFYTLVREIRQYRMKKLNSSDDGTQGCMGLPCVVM

[3] = biological target: GDP-bound HRAS wild-type protein (Homo sapiens, UniProt P01112); test: Binding to HRAS by surface plasmon resonance (SPR), Single Cycle Kinetics; details: SPR, GDP-bound HRAS wild-type protein vs GDP-bound KRAS wild-type protein
Sequence of GDP-bound HRAS wild-type protein (P01112 whole entry): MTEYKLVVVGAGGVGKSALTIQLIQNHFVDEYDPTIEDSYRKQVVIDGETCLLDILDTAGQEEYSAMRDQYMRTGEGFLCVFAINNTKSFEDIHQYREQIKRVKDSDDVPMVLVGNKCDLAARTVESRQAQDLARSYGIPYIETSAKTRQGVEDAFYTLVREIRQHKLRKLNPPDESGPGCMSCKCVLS

[4] = SPR Single Cycle Kinetics, 1:1 binding model

| Compound | Kd ([1]; SPR, Single Cycle Kinetics) [nM] | Kd [1, 4] [nM] | NRAS/KRAS (ratio of KD value for NRAS to KD value for KRAS) [2] | HRAS/KRAS (ratio of KD value for HRAS to KD value for KRAS) [3] | NRAS/KRAS (ratio of KD value with respect to NRAS to KD value with respect to KRAS) [2] | HRAS/KRAS (ratio of KD value with respect to HRAS to KD value with respect to KRAS) [3] |
| --- | --- | --- | --- | --- | --- | --- |
| CCCN1C(=O)[C@@H]2CCN2C(=O)CN(C)C(=O)[C@H]([C@@H](C)CC)NC(=O)[C@H](CC(C)C)N(C)C(=O)C[C@@H](C(=O)N(C)C)NC(=O)[C@H](C2CCCC2)N(C)C(=O)C2(CCC2)NC(=O)[C@@H]2C[C@@H](OCC)CN2C(=O)[C@H](CCc2ccc(C(F)(F)F)c(Cl)c2)NC(=O)CN(C)C(=O)[C@@H]1Cc1ccc(C(F)(F)F)cc1 [PP0390] ([NMeL]I[Sar][Aze][NPrPhe(4-CF3)][Sar][hPhe(3-Cl-4-CF3)][Hyp](Et)[Ac4c][NMeGly(cPent)]D-NMe2; lactam N-11) |  | 0.2 | C (A compound having a KD ratio of 0.1 or more and less than 3 is denoted as C) | B (a compound having 3 or more and less than 10 is denoted as B) |  |  |
| CCCN1C(=O)CN(C)C(=O)[C@@H]2CCN2C(=O)[C@H]([C@@H](C)CC)NC(=O)[C@H](CC(C)C)N(C)C(=O)C[C@@H](C(=O)N2CCOCC2)N(C)C(=O)[C@H](C2CCCC2)N(C)C(=O)C2(CCCC2)NC(=O)[C@@H]2CCCN2C(=O)[C@H](CCc2cc(F)c(C(F)(F)F)c(F)c2)NC(=O)CN(C)C(=O)[C@@H]1Cc1ccc(C(F)(F)F)cc1 [PP0770] ([NMeL]I[Aze][Sar][NPrPhe(4-CF3)][Sar][hPhe(3,5-F2-4-CF3)]P[Ac5c][NMeGly(cPent)][NMeD]-Morpholide; lactam N-11) |  | 0.84 |  |  | B (a compound having 3 or more and less than 10 is denoted as B) | B (a compound having 3 or more and less than 10 is denoted as B) |
| CCCN1C(=O)CN(C)C(=O)CN(CC)C(=O)[C@H]([C@@H](C)CC)NC(=O)[C@H](CC(C)C)N(C)C(=O)C[C@@H](C(=O)N2CCOCC2)N(C)C(=O)[C@H](C2CCCC2)N(C)C(=O)C2(CCC2)NC(=O)[C@@H]2CC(F)(F)CN2C(=O)[C@H](CCc2ccc(C(F)(F)F)c(Cl)c2)NC(=O)CN(C)C(=O)[C@@H]1Cc1ccc(C(F)(F)F)cc1 [PP0400] ([NMeL]I[NEtG][Sar][NPrPhe(4-CF3)][Sar][hPhe(3-Cl-4-CF3)][Pro(4,4-F2)][Ac4c][NMeGly(cPent)][NMeD]-Morpholide; lactam N-11) |  | 0.17 | B (a compound having 3 or more and less than 10 is denoted as B) | B (a compound having 3 or more and less than 10 is denoted as B) |  |  |
| CCCCN1C(=O)CN(C)C(=O)CN(C)C(=O)[C@H]([C@@H](C)CC)NC(=O)[C@H](CC(C)C)N(C)C(=O)C[C@@H](C(=O)N2CCOCC2)N(C)C(=O)[C@H](C2CCCC2)N(C)C(=O)C2(CCCC2)NC(=O)[C@@H]2CCCN2C(=O)[C@H](CCc2ccc(C(F)(F)F)c(Cl)c2)NC(=O)CN(C)C(=O)[C@@H]1Cc1ccc(C(F)(F)F)cc1 [PP0120] ([NMeL]I[Sar][Sar][X17][Sar][hPhe(3-Cl-4-CF3)]P[Ac5c][NMeGly(cPent)][NMeD]-Morpholide; lactam N-11) |  | 0.19 | B (a compound having 3 or more and less than 10 is denoted as B) | C (A compound having a KD ratio of 0.1 or more and less than 3 is denoted as C) |  |  |
| CCCN1C(=O)CN(C)C(=O)[C@@H]2CCN2C(=O)[C@H]([C@@H](C)CC)NC(=O)[C@H](CC(C)C)N(C)C(=O)C[C@@H](C(=O)N2CCOCC2)N(C)C(=O)[C@H](C2CCCC2)N(C)C(=O)[C@](C)([C@@H](C)CC)NC(=O)[C@@H]2CCCN2C(=O)[C@H](CCc2cc(F)c(C(F)(F)F)c(F)c2)NC(=O)CN(C)C(=O)[C@@H]1Cc1ccc(C(F)(F)F)cc1 [PP0774] ([NMeL]I[Aze][Sar][NPrPhe(4-CF3)][Sar][hPhe(3,5-F2-4-CF3)]P[αMeI][NMeGly(cPent)][NMeD]-Morpholide; lactam N-11) |  | 17 |  |  | B (a compound having 3 or more and less than 10 is denoted as B) | B (a compound having 3 or more and less than 10 is denoted as B) |
| CCCN1C(=O)CN(C)C(=O)CNC(=O)[C@H]([C@@H](C)CC)NC(=O)[C@H](CC(C)C)N(C)C(=O)C[C@@H](C(=O)N2CCOCC2)NC(=O)[C@H](C2CCCC2)N(C)C(=O)C2(CCCC2)NC(=O)[C@@H]2C[C@@H](OCC)CN2C(=O)[C@H](CCc2ccc(C(F)(F)F)c(Cl)c2)NC(=O)CN(C)C(=O)[C@@H]1Cc1ccc(C(F)(F)F)cc1 [PP0329] ([NMeL]IG[Sar][NPrPhe(4-CF3)][Sar][hPhe(3-Cl-4-CF3)][Hyp](Et)[Ac5c][NMeGly(cPent)]D-Morpholide; lactam N-11) |  | 0.74 | B (a compound having 3 or more and less than 10 is denoted as B) | C (A compound having a KD ratio of 0.1 or more and less than 3 is denoted as C) |  |  |

Now from value to compound, other results behind:

| Kd ([1]; SPR, Single Cycle Kinetics) [nM] | Kd [1, 4] [nM] | Compound | NRAS/KRAS (ratio of KD value for NRAS to KD value for KRAS) [2] | HRAS/KRAS (ratio of KD value for HRAS to KD value for KRAS) [3] | NRAS/KRAS (ratio of KD value with respect to NRAS to KD value with respect to KRAS) [2] | HRAS/KRAS (ratio of KD value with respect to HRAS to KD value with respect to KRAS) [3] |
| --- | --- | --- | --- | --- | --- | --- |
| 0.18 |  | CCCOC[C@H]1C(=O)N[C@@H]([C@@H](C)CC)C(=O)N2CCC[C@H]2C(=O)N(C)[C@H]2C/C=C\CCN(C2=O)[C@@H](Cc2ccc(C(F)(F)F)cc2)C(=O)N(C)CC(=O)N[C@@H](CCc2ccc(C(F)(F)F)c(OC)c2)C(=O)N2C[C@H](OCC)C[C@H]2C(=O)N(C)C2(CCC2)C(=O)N(C)[C@@H](C2CCCC2)C(=O)N(C)[C@H](C(=O)N(C)C)CC(=O)N1C [PP2322] | A (a compound having 10 or more and less than 20 is denoted as A) | B (a compound having 3 or more and less than 10 is denoted as B) |  |  |
|  | 0.34 | CCCN1C(=O)[C@@H]2CCN2C(=O)CN(C)C(=O)[C@H](C2CC(F)(F)C2)NC(=O)[C@H](CC(C)C)N(C)C(=O)C[C@@H](C(=O)N2CCOCC2)N(C)C(=O)[C@H](C2CCCC2)N(C)C(=O)C2(CCCC2)NC(=O)[C@@H]2CCCN2C(=O)[C@H](CCc2cc(F)c(C(F)(F)F)c(F)c2)NC(=O)CN(C)C(=O)[C@@H]1Cc1ccc(C(F)(F)F)cc1 [PP0787] ([NMeL][X13][Sar][Aze][NPrPhe(4-CF3)][Sar][hPhe(3,5-F2-4-CF3)]P[Ac5c][NMeGly(cPent)][NMeD]-Morpholide; lactam N-11) |  |  | C (A compound having a KD ratio of 0.1 or more and less than 3 is denoted as C) | B (a compound having 3 or more and less than 10 is denoted as B) |
| 0.91 |  | CCO[C@@H]1C[C@H]2C(=O)NC3(CCC3)C(=O)N(C)[C@@H](C3CCCC3)C(=O)N(C)[C@H](C(=O)N(C)C)CC(=O)N(C)[C@@H](Cc3cccc(Cl)c3)C(=O)N[C@@H]([C@@H](C)CC)C(=O)N(C)CC(=O)N(C)[C@H]3CCCCCN(C3=O)[C@@H](Cc3ccc(C(F)(F)F)cc3)C(=O)N(C)CC(=O)N[C@@H](CCc3cc(F)c(C(F)(F)F)c(F)c3)C(=O)N2C1 [PP0939] | B (a compound having 3 or more and less than 10 is denoted as B) | B (a compound having 3 or more and less than 10 is denoted as B) |  |  |
| 0.76 |  | CCC[C@H]1C(=O)N[C@@H]([C@@H](C)CC)C(=O)N(C2CC2)CC(=O)N(C)[C@H]2C/C=C\CCN(C2=O)[C@@H](CC2CCC(F)(F)CC2)C(=O)N(C)CC(=O)N[C@@H](CCc2ccc(C(F)(F)F)c(OC)c2)C(=O)N2C[C@H](OCC)C[C@H]2C(=O)N(C)C2(CCC2)C(=O)N(C)[C@@H](C2CCCC2)C(=O)N(C)[C@H](C(=O)N(C)C)CC(=O)N1C [PP2352] | A (a compound having 10 or more and less than 20 is denoted as A) | A (a compound having 10 or more and less than 20 is denoted as A) |  |  |
